Four compounds from article PMC8571316 (Scientific Reports, 2021) can be followed below.

SMILES strings stand for the structures. Peptide text beside a SMILES is read from it. * marks the point of attachment. Biotin = O=C1N[C@H]2[C@H](CS[C@H]2CCCCC(=O)*)N1; PEG4 = NCCOCCOCCOCCOCCC(=O)O

The target in experiment [1] is T1, SARS-CoV-2 S1 protein (Severe acute respiratory syndrome coronavirus 2, UniProt P0DTC2).
T1 construct: immobilized SARS-CoV-2 S1 protein (His-tag, #S1N-C52H3, Acro Biosystems); His-tag; purchased Acro Biosystems S1N-C52H3
In kind it is binding.

Experiment [2] has as its target T1, SARS-CoV-2 S1 protein. The experiment can be described thus: biochemical. The format is binding. The settings on record: for kon: read-out: S1 Protein in Binding Buffer ka (1/Ms); for koff: read-out: S1 Protein in Binding Buffer kdis (1/s).

With `CC(C)C[C@H](NC(=O)[C@H](CC(=O)O)NC(=O)[C@H](CCC(=O)O)NC(=O)[C@H](Cc1c[nH]c2ccccc12)NC(=O)[C@H](CCC(=O)O)NC(=O)[C@H](CC(C)C)NC(=O)[C@H](CC(N)=O)NC(=O)[C@H](Cc1ccccc1)NC(=O)[C@@H](NC(=O)[C@H](Cc1ccccc1)NC(=O)[C@H](CC(C)C)NC(=O)[C@H](Cc1ccccc1)NC(=O)[C@H](CC(C)C)NC(=O)[C@@H](NC(=O)[C@H](Cc1c[nH]c2ccccc12)NC(=O)[C@H](CC(=O)O)NC(=O)CCOCCOCCOCCOCCNC(=O)CCCC[C@@H]1SC[C@@H]2NC(=O)N[C@@H]21)[C@@H](C)O)C(C)C)C(=O)N[C@@H](Cc1ccccc1)C(=O)N[C@@H](Cc1ccc(O)cc1)C(=O)O` [Peptide P89] ({Biotin-PEG4}-DWTLFLFVFNLEWEDLFY-OH; C-terminus assumed), the “binding to S1 protein in ELISA-like assay (in words)” value (“binding to S1 protein” below) at SARS-CoV-2 S1 protein [1] is “higher binding affinity than the original ACE2 fragment (SBP1)”. Further, on SARS-CoV-2 S1 protein [2], the kon is 7800 M⁻¹ s⁻¹ and the koff amounted to 0.000969 s⁻¹.

With `CC[C@H](C)[C@H](NC(=O)[C@H](CCC(=O)O)NC(=O)[C@H](Cc1ccc(O)cc1)NC(=O)[C@H](Cc1ccc(O)cc1)NC(=O)[C@H](CCSC)NC(=O)[C@H](Cc1c[nH]cn1)NC(=O)[C@H](CCSC)NC(=O)[C@H](Cc1c[nH]c2ccccc12)NC(=O)[C@H](CCCCN)NC(=O)[C@H](CC(=O)O)NC(=O)[C@H](Cc1c[nH]c2ccccc12)NC(=O)[C@H](CCC(=O)O)NC(=O)[C@@H](NC(=O)[C@H](CCCCN)NC(=O)CCOCCOCCOCCOCCNC(=O)CCCC[C@@H]1SC[C@@H]2NC(=O)N[C@@H]21)[C@@H](C)O)C(=O)N[C@@H](Cc1ccccc1)C(=O)N[C@@H](Cc1ccc(O)cc1)C(=O)N[C@@H](CCC(=O)O)C(=O)N[C@@H](CC(=O)O)C(=O)O` [Peptide P100] ({Biotin-PEG4}-KTEWDKWMHMYYEIFYED-OH; C-terminus assumed), the “binding to S1 protein” value at SARS-CoV-2 S1 protein [1] is “higher binding affinity than the original ACE2 fragment (SBP1)”. On SARS-CoV-2 S1 protein [2], the kon came to 3930 M⁻¹ s⁻¹ and the koff amounted to 0.000728 s⁻¹.

For the compound `CC[C@H](C)[C@H](NC(=O)[C@H](CC(=O)O)NC(=O)[C@H](Cc1ccccc1)NC(=O)[C@H](CC(N)=O)NC(=O)CCOCCOCCOCCOCCNC(=O)CCCC[C@@H]1SC[C@@H]2NC(=O)N[C@@H]21)C(=O)N[C@@H](CC(C)C)C(=O)N[C@@H](CC(C)C)C(=O)N[C@@H](Cc1ccccc1)C(=O)N[C@H](C(=O)N[C@@H](Cc1ccccc1)C(=O)N[C@@H](CC(N)=O)C(=O)N[C@@H](Cc1ccc(O)cc1)C(=O)N[C@@H](CCC(=O)O)C(=O)N[C@@H](CCSC)C(=O)N[C@@H](CCC(=O)O)C(=O)N[C@@H](CC(=O)O)C(=O)N[C@@H](CCCCN)C(=O)N[C@@H](Cc1ccccc1)C(=O)N[C@@H](Cc1ccc(O)cc1)C(=O)O)C(C)C` [Peptide P168] ({Biotin-PEG4}-NFDILLFVFNYEMEDKFY-OH; C-terminus assumed), the “binding to S1 protein” value on SARS-CoV-2 S1 protein [1] was “higher binding affinity than the original ACE2 fragment (SBP1)”. Also, on SARS-CoV-2 S1 protein [2], the kon came out at 7490 M⁻¹ s⁻¹ and the koff is 0.00107 s⁻¹.

Turning to `CC[C@H](C)[C@H](NC(=O)[C@@H](NC(=O)[C@H](Cc1ccc(O)cc1)NC(=O)[C@H](Cc1ccccc1)NC(=O)[C@H](Cc1ccc(O)cc1)NC(=O)[C@@H](NC(=O)[C@H](CCC(=O)O)NC(=O)[C@H](CCSC)NC(=O)[C@H](Cc1c[nH]c2ccccc12)NC(=O)[C@H](Cc1c[nH]cn1)NC(=O)[C@H](CO)NC(=O)[C@H](Cc1ccccc1)NC(=O)[C@H](CCSC)NC(=O)[C@H](CC(=O)O)NC(=O)[C@H](Cc1c[nH]c2ccccc12)NC(=O)[C@H](CC(=O)O)NC(=O)[C@@H](NC(=O)[C@H](CCCCN)NC(=O)CCOCCOCCOCCOCCNC(=O)CCCC[C@@H]1SC[C@@H]2NC(=O)N[C@@H]21)[C@@H](C)O)[C@@H](C)CC)C(C)C)C(=O)O` [Peptide P180] ({Biotin-PEG4}-KTDWDMFSHWMEIYFYVI-OH; C-terminus assumed), the “binding to S1 protein” value on SARS-CoV-2 S1 protein [1] is on record as “higher binding affinity than the original ACE2 fragment (SBP1)”. Moreover, on SARS-CoV-2 S1 protein [2], the kon worked out at 3830 M⁻¹ s⁻¹ and the koff is 0.000929 s⁻¹.
